The source of these data is US20060134063A1, “Agents for proliferating pancreatic beta-cells of the islets of langerhans, agents for suppressing apoptosis of said cells, and screening of candidate compounds for these agents” (priority 2000, published 2006).

For experiment [1], the target named is T1, poly(ADP-ribose) synthetase/polymerase (PARP) (Rattus norvegicus, UniProt P27008).
T1 construct: Nuclear extracts from RINm5F cells were prepared as described; endogenous in cells; host or cells: RINm5F (rat insulinoma) nuclear extract
The experiment in a line: GMSA binding reaction of RINm5F nuclear extracts, effects of ADP-ribosylation. It is filed as biochemical. The settings on record: for intensity of the IL-6/dexamethasone/nicotinamide-dependent GMSA band: added to the binding reaction prior to the 32P-probe. As to the method:
The nuclear extract (10 μg) was incubated in a final volume of 20 μl of buffer containing 20 mM Tris-HCl (pH 7.9), 2 mM MgCl2, 50 mM NaCl, 2 mM EDTA, 10% glycerol, 0.1% Nonidet P-40, 1 mM DTT, 50 μg/ml bovine serum albumin and 1 μg of poly(dI-dC). After incubation for 10 min at room temperature, 2.5 pmol of double-stranded DNA, previously labeled by an exchange reaction using MEGALABEL (Takara Shuzo) and [γ-^32P]ATP (Amersham Pharmacia Biotech), were added and incubated for 30 min at room temperature, then the binding reactions were resolved on pre-run 6% acrylamide gel. […] After electrophoresis, DNA/proteins were electrophoretically transferred to a PolyScreen™ PVDF membrane (NEN).
Poly(ADP-ribosyl)ation of nuclear proteins was performed in the same condition as GMSA in the presence of 62 nM [adenylate-^32P]NAD^+ (2×10^6 cpm, NEN). The ADP-ribosylated proteins were precipitated by the addition of 9 volume of acetone, separated by SDS-PAGE (12.5%) and autoradiographed.

Experiment [2] relates to RINm5F cell lines, #1, #6, and #24, which stably express the Reg protein receptor. Briefly: TUNEL apoptosis assay in RINm5F cell lines #1, #6, #24 expressing Reg protein receptor. It is filed as cell-based, rat. The following applies: HGF 0, 2.5, 25 ng/ml; 24 h; every cell line.
Protocol: Rat insulinoma RINm5F cell lines, #1, #6, and #24, which stably express Reg protein receptor (Kobayashi, S. et al. (2000) J. Biol. Chem. 275, 10723-10726) were similarly cultured as in Example 4 and 1,000 nM Reg protein and HGF at varied concentrations, 0, 2.5, and 25 ng/ml were added thereto. Twenty-four hours after the addition of Reg protein/HGF, apoptosis was measured by TUNEL method using an Apoptosis Screening kit (Wako Pure Chemical Industries Ltd., Osaka, Japan) as described in Kobayashi, S. et al. (2000) J. Biol. Chem. 275, 10723-10726.
For a further experiment, the system named is Reg gene. Briefly: RT-PCR of Reg gene expression in RINm5F cells. The settings on record: 24 h with stimulants. It is filed as cell-based, rat. As to the method:
The Reg gene expression was analyzed by RT-PCR. The cells were harvested after 24 h of culturing in a medium supplemented with stimulants, and total RNA was prepared using cesium trifluoroacetate as described in Takasawa, S. et al. (1993) J. Biol. Chem., 268, 26052-26054. RT-PCR was performed using primers corresponding to nucleotides 23 to 43 and 572 to 593 of rat Reg mRNA (Terazono, K. et al. (1988) J. Biol. Chem., 263, 2111-2114).

The subject of a further experiment is Reg protein. The experiment in a line: Immunoblot of secreted Reg protein in RINm5F culture medium. The following applies: 24 h incubation with stimulants. It is filed as cell-based, rat. The method, then:
The Reg protein levels in the RINm5F cultured media were examined after stimulation. After 24-hour incubation of the cells in a medium supplemented with stimulants, the medium was collected, and subjected to immunoblot analyses as described in Watanabe, T. et al. (1990) J. Biol. Chem., 265, 7432-7439. The medium of RINm5F cells was subjected to SDS polyacrylamide gel electrophoresis (SDS-PAGE) and electrotransferred to a PVDF membrane as described in Takasawa, S. et al. (1993) J. Biol. Chem., 268, 26052-26054. Western blotting was carried out using an anti-rat Reg monoclonal antibody (Terazono, K. et al. (1990) Diabetologia, 33, 250-252).

Experiment [3] concerns 5'-flanking region of the rat Reg gene. The experiment in a line: Reg promoter/luciferase reporter assay in RINm5F cells. The class given is cell-based. The following applies: 2,303-bp Reg 5'-flanking fragment; 24 h stimulation. The method, then: A 2,303-bp fragment containing the 5′-flanking region of Reg gene was fused to the luciferase gene and transfected into RINm5F β-cells.
Specifically, luciferase reporter gene constructs were generated as described in Miyashita, H. et al. (1994) Biochim. Biophys. Acta, 1219, 241-243. RINm5F cells were seeded at 1×10^5 cells/well in 24-well dish. After 48 h, 3.0 μg of test plasmid and 0.2 μg of pCMV-SPORT β-gal (Life Technologies, Inc.) were transfected by lipofection (Felgner, J. H. et al. (1994) J. Biol. Chem., 269, 2550-2561) using DMRIE-C™ (Life Technologies, Inc.). After 24 h, the medium of each dish was replaced with fresh medium containing stimulants and incubated further for 24 h. Cells were harvested in 1 ml of ice-cold phosphate-buffered saline (PBS), washed twice with PBS, and extracts were prepared in extraction buffer (0.1 M potassium phosphate, pH 6.8, 1 mM DTT). The protein concentration was determined using a Coomassie reagent kit (Pierce) and bovine serum albumin as a standard. Luciferase activity was determined by a chemiluminescence substrate using a Pica Gene™ Luminescence Kit (Toyo Ink Mfg. Co, Ltd., Tokyo, Japan). β-galactosidase activity was determined using Aurora™ GAL-XE (ICN).
On the technique in general: In a reporter assay the amount or activity of a reporter protein is the signal.

The next experiment concerns 90% depancreatized rats. The following applies: cited from earlier work.
In experiment [4] the test system is RINm5F cell lines, #1, #6, and #24, which stably express the Reg protein receptor. The following applies: 1,000 nM Reg protein added to culture media; cited from earlier work.
Experiment [5] concerns non-obese diabetic (NOD) mice. The settings on record: cited from earlier work.

T1 sequence (P27008 whole entry): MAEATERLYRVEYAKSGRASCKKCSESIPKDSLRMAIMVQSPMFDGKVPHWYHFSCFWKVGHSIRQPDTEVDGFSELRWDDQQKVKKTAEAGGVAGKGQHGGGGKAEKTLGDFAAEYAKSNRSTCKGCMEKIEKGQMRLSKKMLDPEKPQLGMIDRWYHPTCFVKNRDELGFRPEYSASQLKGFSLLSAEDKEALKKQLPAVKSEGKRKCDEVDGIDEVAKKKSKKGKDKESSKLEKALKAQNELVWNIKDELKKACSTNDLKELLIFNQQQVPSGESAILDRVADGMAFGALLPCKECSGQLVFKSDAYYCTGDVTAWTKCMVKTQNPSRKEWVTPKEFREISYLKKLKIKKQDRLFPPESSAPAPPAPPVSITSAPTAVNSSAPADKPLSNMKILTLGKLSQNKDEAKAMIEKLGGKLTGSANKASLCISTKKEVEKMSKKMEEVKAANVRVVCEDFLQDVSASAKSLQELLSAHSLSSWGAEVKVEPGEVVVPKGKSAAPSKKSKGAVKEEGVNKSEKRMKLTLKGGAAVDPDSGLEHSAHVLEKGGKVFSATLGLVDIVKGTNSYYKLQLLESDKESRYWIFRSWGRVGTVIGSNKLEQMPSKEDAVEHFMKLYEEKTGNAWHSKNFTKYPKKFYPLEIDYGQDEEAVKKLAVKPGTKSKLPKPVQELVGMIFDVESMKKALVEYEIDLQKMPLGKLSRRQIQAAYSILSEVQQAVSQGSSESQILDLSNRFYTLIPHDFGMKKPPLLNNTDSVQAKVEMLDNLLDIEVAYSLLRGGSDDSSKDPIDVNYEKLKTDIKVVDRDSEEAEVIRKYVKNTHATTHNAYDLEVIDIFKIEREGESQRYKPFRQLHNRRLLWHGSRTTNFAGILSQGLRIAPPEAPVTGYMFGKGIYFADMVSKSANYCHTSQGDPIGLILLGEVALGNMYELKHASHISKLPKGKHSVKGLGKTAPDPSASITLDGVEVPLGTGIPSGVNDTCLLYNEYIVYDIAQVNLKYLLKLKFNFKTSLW

In the case of `NC(=O)c1ccc[n+]([C@H]2O[C@H](COP(=O)(O)OP(=O)(O)OC[C@H]3O[C@@H](n4cnc5c(N)ncnc54)[C@H](O)[C@@H]3O)[C@@H](O)[C@H]2O)c1` [α-NAD^+], in experiment [1], the “intensity of the IL-6/dexamethasone/nicotinamide-dependent GMSA band” value is recorded as “not”.

For “HGF: hepatocyte growth factor (HGF; Sigma)”, in experiment [2], the “apoptosis induced by 1,000 nM Reg protein (TUNEL)” value is recorded as “concentration-dependently inhibited apoptosis”.

For the molecule IL-1β: IL-1β (Sigma), stimulant, in the experiment with Reg gene, the “Reg gene expression (Reg mRNA)” value is “no effect on Reg expression”.

Regarding “IL-6: interleukin (IL)-6, a cytokine whose receptor is gp130 (Genzyme)”, the “Reg protein secretion into the medium” value with Reg protein is “did not induce Reg protein secretion”. Besides, the “Reg gene expression (Reg mRNA)” value in the experiment with Reg gene is reported as “no effect on Reg expression”. The “luciferase activity (result in words)” value in experiment [3] is recorded as “ineffective”.

Turning to `NC(=O)c1ccc[n+]([C@@H]2O[C@H](COP(=O)([O-])OP(=O)(O)OC[C@H]3O[C@@H](n4cnc5c(N)ncnc54)[C@H](O)[C@@H]3O)[C@@H](O)[C@H]2O)c1` [β-NAD^+], the “intensity of the IL-6/dexamethasone/nicotinamide-dependent GMSA band” value in experiment [1] is reported as “attenuated”.

Take `Nc1ncnc2c1ncn2[C@@H]1O[C@H](COP(=O)(O)OP(=O)(O)OC[C@H]2OC(O)[C@H](O)[C@@H]2O)[C@@H](O)[C@H]1O` (some centres unmarked) [ADP-ribose]: the “intensity of the IL-6/dexamethasone/nicotinamide-dependent GMSA band” value in experiment [1] is given as “did not attenuate the band intensity”.

`NC(=O)c1cccc(N)c1` [3-aminobenzamide]: the “Reg gene expression (Reg mRNA)” value with Reg gene is on record as “no effect on Reg expression”. The “luciferase activity (result in words)” value in experiment [3] is reported as “ineffective”. In experiment [1] (1 mM β-NAD+ in the GMSA binding reaction, read-out: concentrations of half maximal inhibition (quenching of the effect of β-NAD+ on the GMSA band)), the IC50 came out at 30 µM. For the same molecule, the “development of diabetes after 90% pancreatectomy” value in the experiment with 90% depancreatized rats (PARP inhibitor-treated rats) is “preventing the development of diabetes”.

For the molecule `N=c1c2ncn3c2ncn1[C@@H]1O[C@H](COP(=O)(O)OP(=O)(O)OC[C@H]2O[C@@H]3[C@H](O)[C@@H]2O)[C@@H](O)[C@H]1O` [cyclic ADP-ribose], the “intensity of the IL-6/dexamethasone/nicotinamide-dependent GMSA band” value in experiment [1] is “did not attenuate the band intensity”.

Turning to TNFα, the “Reg gene expression (Reg mRNA)” value with Reg gene is “no effect on Reg expression”.

B1: Reg protein: product of Reg (regenerating gene), stimulates β-cell proliferation (protein)
chain: QEAEEDLPSARITCPEGSNAYSSYCYYFMEDHLSWAEADLFCQNMNSGYLVSVLSQAEGNFLASLIKESGTTAANVWIGLHDPKNNRRWHWSSGSLFLYKSWDTGYPNNSNRGYCVSVTSNSGYKKWRDNSCDAQLSFVCKFKA
For the molecule B1, the “proliferation and apoptosis of the cells” value in experiment [4] is “induced not only proliferation but also apoptosis”.

B2: Human REG protein: human REG protein, 166-amino acid protein with 68% identity to rat Reg protein (protein, UniProt P05451 1-166, looked up)
chain: MAQTSSYFMLISCLMFLSQSQGQEAQTELPQARISCPEGTNAYRSYCYYFNEDRETWVDADLYCQNMNSGNLVSVLTQAEGAFVASLIKESGTDDFNVWIGLHDPKKNRRWHWSSGSLVSYKSWGIGAPSSVNPGYCVSLTSSTGFQKWKDVPCEDKFSFVCKFKN
modifications: full-length
notes: human REG protein, 166-amino acid protein with 68% identity to rat Reg protein
With B2, in experiment [5], the β-cell mass entry is “induced an expansion of the β-cell mass”.

B3: Recombinant rat Reg protein: recombinant rat Reg protein, 165-amino acid protein with a 21-amino acid signal peptide (protein, UniProt P10758 1-165, looked up)
chain: MTRNKYFILLSCLMVLSPSQGQEAEEDLPSARITCPEGSNAYSSYCYYFMEDHLSWAEADLFCQNMNSGYLVSVLSQAEGNFLASLIKESGTTAANVWIGLHDPKNNRRWHWSSGSLFLYKSWDTGYPNNSNRGYCVSVTSNSGYKKWRDNSCDAQLSFVCKFKA
modifications: full-length
notes: recombinant rat Reg protein, 165-amino acid protein with a 21-amino acid signal peptide
For the molecule B3, in the experiment with 90% depancreatized rats (90% depancreatized rats), the “β-cell replication and β-cell mass in the residual pancreas” value is “stimulated β-cell replication and increased the β-cell mass”.
